Measurements from ChEMBL document CHEMBL1201862, “PubChem BioAssay data set” (2004).
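Method: 48-hour compound exposure of cells in 96-well plates, five concentrations, linear interpolation of endpoints. GI50 marks 50% less growth.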 Active and inactive are the calls of the source. Cut-off read from the data, not from the text of the source: active = GI50 up to about 1.1 µM and inactive = higher.

How the values were obtained:
Experiment in all cases: inhibition of tumour cell growth, NCI panel, 48 h
OVCAR-8 = system: OVCAR-8
SF-268 = system: SF-268
NCI-H522 = system: NCI-H522
SK-OV-3 = system: SK-OV-3
ACHN = system: ACHN
SW-620 = system: SW-620
IGROV-1 = system: IGROV-1
HCT-15 = system: HCT-15
M14 = system: M14
CCRF-CEM = system: CCRF-CEM
A498 = system: A498
EKVX = system: EKVX
RXF 393 = system: RXF 393
NCI-H23 = system: NCI-H23
HT-29 = system: HT-29
LOX IMVI = system: LOX IMVI
RPMI-8226 = system: RPMI-8226
HOP-92 = system: HOP-92

| SMILES | GI50 (OVCAR-8) | GI50 (SF-268) | GI50 (NCI-H522) | GI50 (SK-OV-3) | GI50 (ACHN) | GI50 (SW-620) | GI50 (IGROV-1) | GI50 (HCT-15) [µM] | GI50 (M14) | GI50 (CCRF-CEM) | GI50 (A498) | GI50 (EKVX) | GI50 (RXF 393) | GI50 (NCI-H23) | GI50 (HT-29) | GI50 (LOX IMVI) | GI50 (RPMI-8226) | GI50 (HOP-92) |
| --- | --- | --- | --- | --- | --- | --- | --- | --- | --- | --- | --- | --- | --- | --- | --- | --- | --- | --- |
| O=C(/C=C/c1ccccc1O)c1cccs1 | > 100 µM (inactive) | > 100 µM (inactive) | > 100 µM (inactive) | > 100 µM (inactive) | > 100 µM (inactive) | > 100 µM (inactive) | > 100 µM (inactive) | > 100 | > 100 µM (inactive) | > 100 µM (inactive) | 11.9 µM (inactive) | > 100 µM (inactive) | > 100 µM (inactive) | > 100 µM (inactive) | > 100 µM (inactive) | > 100 µM (inactive) |  |  |
| CCOC(=O)c1ncoc1[C@H]1COC(C)(C)O1 | > 100 µM (inactive) | > 100 µM (inactive) | > 100 µM (inactive) | > 100 µM (inactive) | > 100 µM (inactive) | > 100 µM (inactive) | > 100 µM (inactive) | > 100 | > 100 µM (inactive) | > 100 µM (inactive) |  | > 100 µM (inactive) | > 100 µM (inactive) | > 100 µM (inactive) | > 100 µM (inactive) | > 100 µM (inactive) | > 100 µM (inactive) |  |
| c1ccc(N2N=C(c3ccco3)CC2c2ccco2)cc1 (configuration not stated) | > 100 µM (inactive) | > 100 µM (inactive) | 46.9 µM (inactive) |  | 42.6 µM (inactive) | > 100 µM (inactive) | > 100 µM (inactive) | 69.8 | > 100 µM (inactive) | 42.3 µM (inactive) |  | 98.9 µM (inactive) | 52.4 µM (inactive) | 66.5 µM (inactive) | 75.9 µM (inactive) | > 100 µM (inactive) | 35.2 µM (inactive) |  |
| C1=CC(=NN=P(c2ccccc2)(c2ccccc2)c2ccccc2)C=C1 | > 100 µM (inactive) | > 100 µM (inactive) | 88.5 µM (inactive) | > 100 µM (inactive) | > 100 µM (inactive) | > 100 µM (inactive) | > 100 µM (inactive) | > 100 | > 100 µM (inactive) | > 100 µM (inactive) |  | > 100 µM (inactive) | > 100 µM (inactive) | > 100 µM (inactive) | > 100 µM (inactive) | > 100 µM (inactive) | > 100 µM (inactive) | 55.2 µM (inactive) |
| O=C1c2ccccc2C(=O)N1CCn1nc(-c2ccccc2)cc(-c2ccccc2)c1=O | 33.3 µM (inactive) | > 100 µM (inactive) | 18.6 µM (inactive) | > 100 µM (inactive) | 34.7 µM (inactive) | > 100 µM (inactive) | 74.8 µM (inactive) | 38.2 | > 100 µM (inactive) | 23.2 µM (inactive) |  | 51.5 µM (inactive) | > 100 µM (inactive) | 43.2 µM (inactive) | 52.6 µM (inactive) |  | 5.41 µM (inactive) | 37.8 µM (inactive) |
| C/C(=C\c1ccccc1)C(O)C(=O)c1nc2ccc(Cl)cc2nc1O (configuration not stated) | > 100 µM (inactive) | > 100 µM (inactive) | 52 µM (inactive) | > 100 µM (inactive) | > 100 µM (inactive) | > 100 µM (inactive) | > 100 µM (inactive) | > 100 | > 100 µM (inactive) | 13.6 µM (inactive) | > 100 µM (inactive) | 91.2 µM (inactive) |  | > 100 µM (inactive) | > 100 µM (inactive) | > 100 µM (inactive) | 12.5 µM (inactive) |  |
| CCCn1cc2c(SC)nc(SC)nc2n1 | > 100 µM (inactive) | > 100 µM (inactive) |  |  | > 100 µM (inactive) | > 100 µM (inactive) | > 100 µM (inactive) | > 100 | > 100 µM (inactive) | > 100 µM (inactive) | > 100 µM (inactive) | > 100 µM (inactive) | > 100 µM (inactive) | > 100 µM (inactive) | > 100 µM (inactive) | > 100 µM (inactive) | > 100 µM (inactive) | > 100 µM (inactive) |
